Source: PubChem BioAssay AID1963850 (Molecular Pharmacology Branch, DTP, NCI, 2024)

Tested on: 192522-019-R-J2-PDC complex tumor spheroid viability
Test: Anticancer human tumor 192522-019-R-J2-PDC patient-derived colon adenocarcinoma cell line growth inhibition [POLQ]
Conditions: for IC50: curve of first compound; for viability, T/C: stronger effect = lower value
Summary of the method: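 Three-cell-type spheroids modelling solid tumor plus stroma served as the readout system; POL inhibitors were tested individually and in combination, concentration ranges set by clinical Cmax where known.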

[1] = second compound 0.0316 µM, first compound 0.0316 µM
[2] = second compound 0.0316 µM, first compound 0.1 µM
[3] = second compound 0.0316 µM, first compound 0.316 µM
[4] = second compound 0.0316 µM, first compound 1 µM
[5] = second compound 0.0316 µM, first compound 3.16 µM
[6] = second compound 0.0316 µM, first compound 10 µM
[7] = second compound 0.1 µM, first compound 0.0316 µM
[8] = second compound 0.1 µM, first compound 0.1 µM
[9] = second compound 0.1 µM, first compound 0.316 µM
[10] = second compound 0.1 µM, first compound 1 µM
[11] = second compound 0.1 µM, first compound 3.16 µM
[12] = second compound 0.1 µM, first compound 10 µM
[13] = second compound 0.316 µM, first compound 0.0316 µM
[14] = second compound 0.316 µM, first compound 0.1 µM
[15] = second compound 0.316 µM, first compound 0.316 µM
[16] = second compound 0.316 µM, first compound 1 µM
[17] = second compound 0.316 µM, first compound 3.16 µM
[18] = second compound 0.316 µM, first compound 10 µM
[19] = second compound 1 µM, first compound 0.0316 µM
[20] = second compound 1 µM, first compound 0.1 µM
[21] = second compound 1 µM, first compound 0.316 µM
[22] = second compound 1 µM, first compound 1 µM
[23] = second compound 1 µM, first compound 3.16 µM
[24] = second compound 1 µM, first compound 10 µM
[25] = second compound 3.16 µM, first compound 0.0316 µM
[26] = second compound 3.16 µM, first compound 0.1 µM
[27] = second compound 3.16 µM, first compound 0.316 µM
[28] = second compound 3.16 µM, first compound 1 µM
[29] = second compound 3.16 µM, first compound 3.16 µM
[30] = second compound 3.16 µM, first compound 10 µM
[31] = second compound 10 µM, first compound 0.0316 µM
[32] = second compound 10 µM, first compound 0.1 µM
[33] = second compound 10 µM, first compound 0.316 µM
[34] = second compound 10 µM, first compound 1 µM
[35] = second compound 10 µM, first compound 3.16 µM
[36] = second compound 10 µM, first compound 10 µM
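Note: spheroids exposed to drugs for seven days before reading.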
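Throughout, for viability, T/C: 100% = DMSO vehicle control viability in luminescence.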

Structure (SMILES): CC(C)n1c(=O)n(C)c2cnc3cc(F)c(-c4ccc(OCCCN5CCCCC5)nc4)cc3c21 + Nc1ccc(C#CCN(C(=O)Cc2ncc(C(F)(F)F)cc2C(F)(F)F)c2ccc(F)cc2)nn1
- IC50 (second compound 0.0316 µM): > 10 µM
- IC50 (second compound 0.1 µM): > 10 µM
- IC50 (second compound 0.316 µM): > 10 µM
- IC50 (second compound 1 µM): > 10 µM
- IC50 (second compound 3.16 µM): > 10 µM
- IC50 (second compound 10 µM): > 10 µM
- viability, T/C [1]: 104%
- viability, T/C [2]: 97.6%
- viability, T/C [3]: 110%
- viability, T/C [4]: 118%
- viability, T/C [5]: 124%
- viability, T/C [6]: 101%
- viability, T/C [7]: 100%
- viability, T/C [8]: 112%
- viability, T/C [9]: 119%
- viability, T/C [10]: 134%
- viability, T/C [11]: 122%
- viability, T/C [12]: 94%
- viability, T/C [13]: 113%
- viability, T/C [14]: 105%
- viability, T/C [15]: 110%
- viability, T/C [16]: 118%
- viability, T/C [17]: 123%
- viability, T/C [18]: 111%
- viability, T/C [19]: 104%
- viability, T/C [20]: 118%
- viability, T/C [21]: 122%
- viability, T/C [22]: 138%
- viability, T/C [23]: 137%
- viability, T/C [24]: 111%
- viability, T/C [25]: 116%
- viability, T/C [26]: 104%
- viability, T/C [27]: 116%
- viability, T/C [28]: 127%
- viability, T/C [29]: 120%
- viability, T/C [30]: 112%
- viability, T/C [31]: 105%
- viability, T/C [32]: 104%
- viability, T/C [33]: 117%
- viability, T/C [34]: 127%
- viability, T/C [35]: 127%
- viability, T/C [36]: 114%

Structure (SMILES): CCc1cc2c(N3CCc4c(cc(Cn5ccnc5)cc4-c4cn(C)nc4C(F)(F)F)C3=O)cc(C)nc2c(OC)n1 + COC1C(OC(N)=O)C(O)C(Oc2ccc3c(O)c(NC(=O)c4ccc(O)c(CC=C(C)C)c4)c(=O)oc3c2C)OC1(C)C
- IC50 (second compound 0.0316 µM): > 10 µM
- IC50 (second compound 0.1 µM): > 10 µM
- IC50 (second compound 0.316 µM): > 10 µM
- IC50 (second compound 1 µM): > 10 µM
- IC50 (second compound 3.16 µM): > 10 µM
- IC50 (second compound 10 µM): > 10 µM
- viability, T/C [1]: 95.6%
- viability, T/C [2]: 90.6%
- viability, T/C [3]: 90.5%
- viability, T/C [4]: 82.8%
- viability, T/C [5]: 79.2%
- viability, T/C [6]: 60.7%
- viability, T/C [7]: 94.2%
- viability, T/C [8]: 94.3%
- viability, T/C [9]: 81.5%
- viability, T/C [10]: 82.4%
- viability, T/C [11]: 72.3%
- viability, T/C [12]: 67.4%
- viability, T/C [13]: 101%
- viability, T/C [14]: 96.7%
- viability, T/C [15]: 96.1%
- viability, T/C [16]: 81.6%
- viability, T/C [17]: 82.6%
- viability, T/C [18]: 69.7%
- viability, T/C [19]: 99%
- viability, T/C [20]: 96.8%
- viability, T/C [21]: 85.1%
- viability, T/C [22]: 84.3%
- viability, T/C [23]: 68.5%
- viability, T/C [24]: 72.4%
- viability, T/C [25]: 95.6%
- viability, T/C [26]: 98.8%
- viability, T/C [27]: 87.1%
- viability, T/C [28]: 83.9%
- viability, T/C [29]: 74.6%
- viability, T/C [30]: 66.2%
- viability, T/C [31]: 102%
- viability, T/C [32]: 91.4%
- viability, T/C [33]: 87.5%
- viability, T/C [34]: 80.6%
- viability, T/C [35]: 88.9%
- viability, T/C [36]: 73.4%

Structure (SMILES): CC(C)n1c(=O)n(C)c2cnc3cc(F)c(-c4ccc(OCCCN5CCCCC5)nc4)cc3c21 + Cc1cccc(N(C)C(=O)C2C(O)CCN2c2nc(C)cc(C(F)(F)F)c2C#N)c1
- IC50 (second compound 0.0316 µM): > 10 µM
- IC50 (second compound 0.1 µM): > 10 µM
- IC50 (second compound 0.316 µM): > 10 µM
- IC50 (second compound 1 µM): > 10 µM
- IC50 (second compound 3.16 µM): > 10 µM
- IC50 (second compound 10 µM): > 10 µM
- viability, T/C [1]: 113%
- viability, T/C [2]: 87%
- viability, T/C [3]: 102%
- viability, T/C [4]: 103%
- viability, T/C [5]: 116%
- viability, T/C [6]: 99.3%
- viability, T/C [7]: 104%
- viability, T/C [8]: 99%
- viability, T/C [9]: 107%
- viability, T/C [10]: 107%
- viability, T/C [11]: 99.8%
- viability, T/C [12]: 99.5%
- viability, T/C [13]: 94%
- viability, T/C [14]: 98.4%
- viability, T/C [15]: 108%
- viability, T/C [16]: 105%
- viability, T/C [17]: 127%
- viability, T/C [18]: 104%
- viability, T/C [19]: 98.9%
- viability, T/C [20]: 110%
- viability, T/C [21]: 106%
- viability, T/C [22]: 123%
- viability, T/C [23]: 116%
- viability, T/C [24]: 105%
- viability, T/C [25]: 92%
- viability, T/C [26]: 103%
- viability, T/C [27]: 114%
- viability, T/C [28]: 118%
- viability, T/C [29]: 134%
- viability, T/C [30]: 105%
- viability, T/C [31]: 105%
- viability, T/C [32]: 94.1%
- viability, T/C [33]: 117%
- viability, T/C [34]: 114%
- viability, T/C [35]: 120%
- viability, T/C [36]: 110%
